Results from patent US20060116400A1, “Oxazolidinone and/or isoxazoline derivatives as antibacterial agents” (AstraZeneca AB, priority 2002, published 2006).

Assays:
MAO-A = target: T1, MAO-A (Homo sapiens, UniProt P21397); assay: MAO-A inhibition (Ki); assay type: biochemical; conditions: * = approximate values
T1 sequence (P21397 1-527): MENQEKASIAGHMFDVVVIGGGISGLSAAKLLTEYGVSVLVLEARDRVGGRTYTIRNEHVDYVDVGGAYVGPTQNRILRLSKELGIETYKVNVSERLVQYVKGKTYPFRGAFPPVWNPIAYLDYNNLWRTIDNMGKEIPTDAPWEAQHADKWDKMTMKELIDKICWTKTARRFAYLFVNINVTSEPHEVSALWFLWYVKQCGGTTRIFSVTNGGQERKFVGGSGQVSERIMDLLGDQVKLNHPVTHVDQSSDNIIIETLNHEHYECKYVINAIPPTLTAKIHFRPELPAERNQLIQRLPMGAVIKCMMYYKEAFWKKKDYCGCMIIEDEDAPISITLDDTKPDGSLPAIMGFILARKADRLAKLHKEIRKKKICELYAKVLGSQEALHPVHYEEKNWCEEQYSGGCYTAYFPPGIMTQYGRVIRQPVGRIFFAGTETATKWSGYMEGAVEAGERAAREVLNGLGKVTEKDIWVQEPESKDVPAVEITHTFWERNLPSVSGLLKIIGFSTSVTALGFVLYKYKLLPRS

Row | SMILES | melting point | Ki (MAO-A) [µM]
1 | O=C1O[C@@H](Cn2ccnn2)CN1c1ccc(-c2ccc(C3=NOC(C(O)c4ccccc4)C3)nc2)c(F)c1 (single isomer, unassigned) [Example 26] | 182 °C | –
2 | CC(C)C(OC(=O)Cc1ccc2ccccc2c1)C1CC(c2ccc(-c3ccc(N4C[C@H](Cn5ccnn5)OC4=O)cc3F)cn2)=NO1 (single isomer, unassigned) [Example 30] | 85 °C | –
3 | CC(C)C(O)C1CC(c2ccc(-c3ccc(N4C[C@H](Cn5ccnn5)OC4=O)cc3F)cn2)=NO1 (single isomer, unassigned) [Example 32] | 155 °C | –
4 | CC(C)(O)C1CC(c2ccc(-c3ccc(N4C[C@H](Cn5ccnn5)OC4=O)cc3F)cn2)=NO1 (stereo partly drawn) [Example 15, (5R)-3-(3-Fluoro-4-{6-[5-(1-hydroxy-1-methylethyl)-4,5-dihydroisoxazol-3-yl]pyridin-3-yl}phenyl)-5-(1H-1,2,3-triazol-1-ylmethyl)-1,3-oxazolidin-2-one] | 197 °C | –
5 | CC(C)(C)OC(=O)C1CC(c2ccc(-c3ccc(N4C[C@H](Cn5ccnn5)OC4=O)cc3F)cn2)=NO1 (some centres unmarked) [Example 21] | 165 to 168 °C | –
6 | O=C(O)C1CC(c2ccc(-c3ccc(N4C[C@H](Cn5ccnn5)OC4=O)cc3F)cn2)=NO1 (stereo partly drawn) [Example 22, 3-(5-{2-Fluoro-4-[(5R)-2-oxo-5-(1H-1,2,3-triazol-1-ylmethyl)-1,3-oxazolidin-3-yl]phenyl}pyridin-2-yl)-4,5-dihydroisoxazole-5-carboxylic acid] | 190 to 194 °C | –
7 | CN(C)C(=O)C1CC(c2ccc(-c3ccc(N4C[C@H](Cn5ccnn5)OC4=O)cc3F)cn2)=NO1 (stereo partly drawn) [Example 23, 3-(5-{2-Fluoro-4-[(5R)-2-oxo-5-(1H-1,2,3-triazol-1-ylmethyl)-1,3-oxazolidin-3-yl]phenyl}pyridin-2-yl)-N,N-dimethyl-4,5-dihydroisoxazole-5-carboxamide] | 180 to 190 °C | –
8 | CNC(=O)C1CC(c2ccc(-c3ccc(N4C[C@H](Cn5ccnn5)OC4=O)cc3F)cn2)=NO1 (stereo partly drawn) [Example 24, 3-(5-{2-Fluoro-4-[(5R)-2-oxo-5-(1H-1,2,3-triazol-1-ylmethyl)-1,3-oxazolidin-3-yl]phenyl}pyridin-2-yl)-N-methyl-4,5-dihydroisoxazole-5-carboxamide] | 185 to 195 °C | –
9 | O=C1O[C@@H](Cn2ccnn2)CN1c1ccc(-c2ccc(C3=NOC(CS(=O)(=O)CCO)C3)nc2)c(F)c1 (stereo partly drawn) [Example 25, (5R)-3-{3-Fluoro-4-[6-(5-{[(2-hydroxyethyl)sulfonyl]methyl}-4,5-dihydroisoxazol-3-yl)pyridin-3-yl]phenyl}-5-(1H-1,2,3-triazol-1-ylmethyl)-1,3-oxazolidin-2-one] | 210 °C | –
10 | O=C1O[C@@H](Cn2ccnn2)CN1c1ccc(-c2ccc(C3=NOC(C4(O)CCCC4)C3)nc2)c(F)c1 (stereo partly drawn) [Example 28, (5R)-3-(3-Fluoro-4-{6-[5-(1-hydroxycyclopentyl)-4,5-dihydroisoxazol-3-yl]pyridin-3-yl}phenyl)-5-(1H-1,2,3-triazol-1-ylmethyl)-1,3-oxazolidin-2-one] | 225 °C | –
11 | O=C1O[C@@H](Cn2ccnn2)CN1c1ccc(-c2ccc(C3=NOC(CNCCc4ccncc4)C3)nc2)c(F)c1 (stereo partly drawn) [Example 33, (5R)-3-{3-Fluoro-4-[6-(5-{[(2-pyridin-4-ylethyl)amino]methyl}-4,5-dihydroisoxazol-3-yl)pyridin-3-yl]phenyl}-5-(1H-1,2,3-triazol-1-ylmethyl)-1,3-oxazolidin-2-one] | 181 °C | –
12 | CN1CCC(O)(C2CC(c3ccc(-c4ccc(N5C[C@H](Cn6ccnn6)OC5=O)cc4F)cn3)=NO2)CC1 (stereo partly drawn) [Example 34, (5R)-3-(3-Fluoro-4-{6-[5-(4-hydroxy-1-methylpiperidin-4-yl)-4,5-dihydroisoxazol-3-yl]pyridin-3-yl}phenyl)-5-(1H-1,2,3-triazol-1-ylmethyl)-1,3-oxazolidin-2-one] | 73 °C | –
13 | O=C1O[C@@H](Cn2ccnn2)CN1c1ccc(-c2ccc(C3=NOC(CS(=O)(=O)CCc4ccncc4)C3)nc2)c(F)c1 (stereo partly drawn) [Example 35, (5R)-3-{3-Fluoro-4-[6-(5-{[(2-pyridin-4-ylethyl)sulfonyl]methyl}-4,5-dihydroisoxazol-3-yl)pyridin-3-yl]phenyl}-5-(1H-1,2,3-triazol-1-ylmethyl)-1,3-oxazolidin-2-one] | 195 °C | –
14 | CCN(CC)CCC(=O)OC[C@@H]1CC(c2ccc(-c3ccc(N4C[C@H](Cn5ccnn5)OC4=O)cc3F)cn2)=NO1 [Example 43, [(5S)-3-(5-{2-Fluoro-4-[(5R)-2-oxo-5-(1H-1,2,3-triazol-1-ylmethyl)-1,3-oxazolidin-3-yl]phenyl}pyridin-2-yl)-4,5-dihydroisoxazol-5-yl]methyl N,N-diethyl-β-alaninate] | 167 °C | –
15 | O=C1O[C@@H](Cn2ccnn2)CN1c1ccc(-c2ccc(C3=NO[C@H]([C@H](O)CO)C3)nc2)c(F)c1 [Example 51, (5R)-3-[4-(6-{(5S)-5-[(1R)-1,2-Dihydroxyethyl]-4,5-dihydroisoxazol-3-yl}pyridin-3-yl)-3-fluorophenyl]-5-(1H-1,2,3-triazol-1-ylmethyl)-1,3-oxazolidin-2-one] | – | ~60
16 | O=C1O[C@@H](Cn2ccnn2)CN1c1ccc(-c2ccc(C3=NO[C@@H]([C@H](O)CO)C3)nc2)c(F)c1 [Example 52, (5R)-3-[4-(6-{(5R)-5-[(1R)-1,2-Dihydroxyethyl]-4,5-dihydroisoxazol-3-yl}pyridin-3-yl)-3-fluorophenyl]-5-(1H-1,2,3-triazol-ylmethyl)-1,3-oxazolidin-2-one] | – | ~35
17 | O=C1O[C@@H](Cn2ccnn2)CN1c1ccc(-c2ccc(C3=NO[C@H]([C@@H](O)CO)C3)nc2)c(F)c1 [Example 53, (5R)-3-[4-(6-{(5S)-[(1S)-1,2-Dihydroxyethyl]-4,5-dihydroisoxazol-3-yl}pyridin-3-yl)-3-fluorophenyl]-5-(1H-1,2,3-triazol-1-ylmethyl)-1,3-oxazolidin-2-one] | – | 60
18 | O=C1O[C@@H](Cn2ccnn2)CN1c1ccc(-c2ccc(C3=NO[C@@H]([C@@H](O)CO)C3)nc2)c(F)c1 [Example 54, (5R)-3-[4-(6-{(5R)S-5-[(1S)-1,2-Dihydroxyethyl]-4,5-dihydroisoxazol-3-yl}pyridin-3-yl)-3-fluorophenyl]-5-(1H-1,2,3-triazol-1-ylmethyl)-1,3-oxazolidin-2-one] | – | 8
19 | COCCC(=O)OC[C@@H](O)[C@@H]1CC(c2ccc(-c3ccc(N4C[C@H](Cn5ccnn5)OC4=O)cc3F)cn2)=NO1 [Example 56, (2R)-2-[(5S)-3-(5-{2-Fluoro-4-[(5R)-2-oxo-5-(1H-1,2,3-triazol-1-ylmethyl)-1,3-oxazolidin-3-yl]phenyl}pyridin-2-yl)-4,5-dihydroisoxazol-5-yl]-2-hydroxyethyl 3-methoxypropanoate] | 130 °C | –
20 | O=C(OC[C@@H](O)[C@@H]1CC(c2ccc(-c3ccc(N4C[C@H](Cn5ccnn5)OC4=O)cc3F)cn2)=NO1)c1cccnc1 [Example 57, (2R)-2-[(5S)-3-(5-{2-Fluoro-4-[(5R)-2-oxo-5-(1H-1,2,3-triazol-1-ylmethyl)-1,3-oxazolidin-3-yl]phenyl}pyridin-2-yl)-4,5-dihydroisoxazol-5-yl]-2-hydroxyethyl nicotinate] | 210 °C | –
21 | COCCOC(=O)OC[C@@H](O)[C@@H]1CC(c2ccc(-c3ccc(N4C[C@H](Cn5ccnn5)OC4=O)cc3F)cn2)=NO1 [Example 58, (2R)-2-[(5S)-3-(5-{2-Fluoro-4-[(5R)-2-oxo-5-(1H-1,2,3-triazol-1-ylmethyl)-1,3-oxazolidin-3-yl]phenyl}pyridin-2-yl)-4,5-dihydroisoxazol-5-yl]-2-hydroxyethyl 2-methoxyethyl carbonate] | 125 °C | –
22 | N.N.N.N.O=C1O[C@@H](Cn2ccnn2)CN1c1ccc(-c2ccc(C3=NO[C@H]([C@@H](COP(=O)(O)O)OP(=O)(O)O)C3)nc2)c(F)c1 [Example 59, Phosphoric acid mono-(1R)-[(5R)-2-(3-{(5S)-[2-fluoro-4-(2-oxo-5-[1,2,3]triazol-1-ylmethyl-oxazolidin-3-yl)-phenyl]-pyridin-2-yl}-4,5-dihydro-isoxazol-5-yl)-2-phosphonooxy-ethyl]ester, tetrakis ammonium salt] | 175 to 180 °C (dec.) | –
23 | O=C1O[C@@H](Cn2ccnn2)CN1c1ccc(-c2ccc(C3=NO[C@H](CSCCO)C3)nc2)c(F)c1 [Example 60, (5R)-3-{3-Fluoro-4-[6-((5S)-5-{[(2-hydroxyethyl)thio]methyl}-4,5-dihydroisoxazol-3-yl)pyridin-3-yl]phenyl}-5-(1H-1,2,3-triazol-1-ylmethyl)-1,3-oxazolidin-2-one] | 162 °C | –
24 | O=C1O[C@@H](Cn2ccnn2)CN1c1ccc(-c2ccc(C3=NO[C@H](COC(F)(F)F)C3)nc2)c(F)c1 [Example 61] | 185 °C | –
25 | O=C1O[C@@H](Cn2ccnn2)CN1c1ccc(-c2ccc(C3=NO[C@H](COCC(F)(F)F)C3)nc2)c(F)c1 [Example 62] | 199 °C | –
26 | COC[C@@H]1CC(c2ccc(-c3ccc(N4C[C@H](Cn5ccnn5)OC4=O)cc3F)cn2)=NO1 [Example 64, (5R)-3-(3-Fluoro-4-{6-[(5S)-5-(methoxymethyl)-4,5-dihydroisoxazol-3-yl]pyridin-3-yl}phenyl)-5-(1H-1,2,3-triazol-1-ylmethyl)-1,3-oxazolidin-2-one] | 172 °C | –
